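1) Cells in 96-well plates. 2) Compound, 48 h, 5 concentrations. 3) Linear interpolation between surrounding doses. 4) Unreached endpoint = highest concentration. GI50 = concentration required for 50% inhibition of growth.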 Activity calls are given as the source filed them. Cut-off read from the data, not from the text of the source: active = GI50 up to about 1.1 µM and inactive = higher.
Experiments:
Experiment in all cases: inhibition of tumour cell growth, NCI panel, 48 h
HCT-116 = test system: HCT-116
UACC-62 = test system: UACC-62
CCRF-CEM = test system: CCRF-CEM
IGROV-1 = test system: IGROV-1
XF498 = test system: XF498
OVCAR-4 = test system: OVCAR-4
SK-MEL-5 = test system: SK-MEL-5
M19-MEL = test system: M19-MEL
KM-20L2 = test system: KM-20L2
DMS-273 = test system: DMS-273
LOX IMVI = test system: LOX IMVI
LXFL 529 = test system: LXFL 529
MOLT-4 = test system: MOLT-4
HL-60 = test system: HL-60
OVCAR-8 = test system: OVCAR-8
HCT-15 = test system: HCT-15
UACC-257 = test system: UACC-257
NCI-H23 = test system: NCI-H23
SNB-78 = test system: SNB-78
HT-29 = test system: HT-29
SNB-75 = test system: SNB-75
RXF 393 = test system: RXF 393
SNB-19 = test system: SNB-19
K562 = test system: K562
U-251 = test system: U-251
HOP-62 = test system: HOP-62
TK-10 = test system: TK-10
HOP-18 = test system: HOP-18
SF-295 = test system: SF-295
COLO 205 = test system: COLO 205
SW-620 = test system: SW-620
SF-539 = test system: SF-539
NCI-H460 = test system: NCI-H460
OVCAR-3 = test system: OVCAR-3
SK-OV-3 = test system: SK-OV-3
DMS-114 = test system: DMS-114
HCC 2998 = test system: HCC 2998
M14 = test system: M14
SN12C = test system: SN12C
CAKI-1 = test system: CAKI-1
ACHN = test system: ACHN
SK-MEL-28 = test system: SK-MEL-28
RPMI-8226 = test system: RPMI-8226
A498 = test system: A498
A549 = test system: A549
EKVX = test system: EKVX
HOP-92 = test system: HOP-92
786-0 = test system: 786-0
DLD-1 = test system: DLD-1
Malme-3M = test system: Malme-3M
SK-MEL-2 = test system: SK-MEL-2
UO-31 = test system: UO-31
NCI-H226 = test system: NCI-H226
OVCAR-5 = test system: OVCAR-5
KM12 = test system: KM12
NCI-H522 = test system: NCI-H522
SF-268 = test system: SF-268
SR = test system: SR

Measured: GI50

O=C(O)CCC1CCc2cccc(OCC(=O)O)c2C1=O (centres undefined)
inactive: HCT-116 > 100 µM | UACC-62 > 100 µM | CCRF-CEM > 100 µM | IGROV-1 > 100 µM | XF498 > 100 µM | OVCAR-4 > 100 µM | SK-MEL-5 > 100 µM | M19-MEL > 100 µM | KM-20L2 > 100 µM | DMS-273 > 100 µM | LOX IMVI > 100 µM | LXFL 529 > 100 µM | MOLT-4 > 100 µM | HL-60 > 100 µM | OVCAR-8 > 100 µM | UACC-257 > 100 µM | NCI-H23 > 100 µM | SNB-78 > 100 µM | HT-29 > 100 µM | SNB-75 > 100 µM | RXF 393 > 100 µM | SNB-19 > 100 µM | K562 > 100 µM | U-251 > 100 µM | HOP-62 > 100 µM | TK-10 > 100 µM | HOP-18 > 100 µM | SF-295 > 100 µM | COLO 205 > 100 µM | SW-620 > 100 µM | SF-539 > 100 µM | NCI-H460 > 100 µM | OVCAR-3 > 100 µM | SK-OV-3 > 100 µM | DMS-114 > 100 µM | HCC 2998 > 100 µM | M14 > 100 µM | SN12C > 100 µM | CAKI-1 > 100 µM | ACHN > 100 µM | SK-MEL-28 > 100 µM | RPMI-8226 > 100 µM | A498 > 100 µM | A549 > 100 µM | EKVX > 100 µM | HOP-92 > 100 µM | 786-0 > 100 µM | DLD-1 > 100 µM
> 100 µM: HCT-15

O=C1CC23CC(=O)CC2(C1)c1ccccc1C3=O (centres undefined)
inactive: HCT-116 > 100 µM | UACC-62 > 100 µM | CCRF-CEM > 100 µM | IGROV-1 > 100 µM | Malme-3M > 100 µM | SK-MEL-2 > 100 µM | XF498 > 100 µM | M19-MEL > 100 µM | KM-20L2 > 100 µM | UO-31 > 100 µM | DMS-273 > 100 µM | LOX IMVI > 100 µM | LXFL 529 > 100 µM | MOLT-4 > 100 µM | HL-60 > 100 µM | OVCAR-8 > 100 µM | UACC-257 > 100 µM | NCI-H23 > 100 µM | SNB-78 > 100 µM | HT-29 > 100 µM | SNB-75 > 100 µM | RXF 393 40.6 µM | SNB-19 > 100 µM | K562 > 100 µM | U-251 > 100 µM | HOP-62 > 100 µM | TK-10 > 100 µM | HOP-18 > 100 µM | SF-295 > 100 µM | COLO 205 > 100 µM | SW-620 > 100 µM | SF-539 > 100 µM | NCI-H460 > 100 µM | NCI-H226 > 100 µM | OVCAR-5 > 100 µM | OVCAR-3 > 100 µM | SK-OV-3 > 100 µM | DMS-114 > 100 µM | HCC 2998 > 100 µM | M14 > 100 µM | SN12C > 100 µM | KM12 > 100 µM | CAKI-1 > 100 µM | ACHN > 100 µM | SK-MEL-28 > 100 µM | RPMI-8226 > 100 µM | NCI-H522 > 100 µM | A549 > 100 µM | SF-268 > 100 µM | EKVX > 100 µM | 786-0 > 100 µM | DLD-1 > 100 µM

COc1nc(NC2OCC(OC(C)=O)C(OC(C)=O)C2OC(C)=O)c(/N=C\C=N\c2c(NC3OCC(OC(C)=O)C(OC(C)=O)C3OC(C)=O)nc(OC)n(C)c2=O)c(=O)n1C (centres undefined)
inactive: HCT-116 > 100 µM | UACC-62 > 100 µM | IGROV-1 > 100 µM | Malme-3M > 100 µM | SK-MEL-2 > 100 µM | XF498 17.9 µM | OVCAR-4 > 100 µM | SK-MEL-5 > 100 µM | M19-MEL > 100 µM | KM-20L2 > 100 µM | UO-31 > 100 µM | DMS-273 > 100 µM | LOX IMVI > 100 µM | LXFL 529 > 100 µM | HL-60 > 100 µM | OVCAR-8 > 100 µM | UACC-257 > 100 µM | NCI-H23 > 100 µM | SNB-78 > 100 µM | HT-29 > 100 µM | SNB-75 > 100 µM | RXF 393 > 100 µM | SNB-19 > 100 µM | K562 > 100 µM | SR > 100 µM | U-251 > 100 µM | HOP-62 > 100 µM | TK-10 > 100 µM | HOP-18 > 100 µM | SF-295 > 100 µM | COLO 205 > 100 µM | SW-620 > 100 µM | SF-539 > 100 µM | NCI-H460 > 100 µM | OVCAR-5 > 100 µM | OVCAR-3 > 100 µM | SK-OV-3 > 100 µM | HCC 2998 > 100 µM | M14 > 100 µM | SN12C > 100 µM | KM12 > 100 µM | ACHN > 100 µM | SK-MEL-28 > 100 µM | RPMI-8226 > 100 µM | NCI-H522 > 100 µM | A498 > 100 µM | A549 > 100 µM | SF-268 > 100 µM | EKVX > 100 µM | HOP-92 > 100 µM | 786-0 > 100 µM | DLD-1 > 100 µM
> 100 µM: HCT-15

Source: ChEMBL document CHEMBL1201862, “PubChem BioAssay data set” (2004)
